Where two headings read alike, the source gives them in different places.
Key:
Assay in all cases: Test E pre-/postemergence plant response
Type in all cases: in vivo
[1] = tested on: wild buckwheat (Polygonum convolvulus); settings: Fallopia convolvulus, scale 0 to 100, read-out: Plant response rating, Buckwheat, Wild; for pest or weed control at 16 g/ha: 16 g ai/ha; for pest or weed control at 31 g/ha: 31 g ai/ha; for pest or weed control at 62 g/ha: 62 g ai/ha; for pest or weed control at 125 g/ha: 125 g ai/ha
Summary of the method: (§1)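 Visual scores on a 0–100 scale (100 = complete control) were assigned against untreated controls 7–21 days after treatment in a controlled environment. Compounds, formulated with solvent plus surfactant, were applied to pre-emergence silt-loam sowings or to 1- to 4-leaf plants (2–18 cm) in potting medium.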

[2] = tested on: chamomile (scentless chamomile, Matricaria inodora); settings: Tripleurospermum inodorum, scale 0 to 100, read-out: Plant response rating, Chamomile; for pest or weed control at 16 g/ha: 16 g ai/ha; for pest or weed control at 31 g/ha: 31 g ai/ha; for pest or weed control at 62 g/ha: 62 g ai/ha; for pest or weed control at 125 g/ha: 125 g ai/ha
Summary of the method: as §1

[3] = tested on: windgrass (Apera spica-venti); settings: scale 0 to 100, read-out: Plant response rating, Windgrass; for pest or weed control at 16 g/ha: 16 g ai/ha; for pest or weed control at 62 g/ha: 62 g ai/ha; for pest or weed control at 125 g/ha: 125 g ai/ha
Summary of the method: as §1

[4] = tested on: spring wheat (Triticum aestivum); settings: scale 0 to 100, read-out: Plant response rating, Wheat, Spring; for plant injury at 16 g/ha: 16 g ai/ha; for plant injury at 62 g/ha: 62 g ai/ha; for plant injury at 125 g/ha: 125 g ai/ha
Summary of the method: as §1

[5] = tested on: oilseed rape (Brassica napus); settings: scale 0 to 100, read-out: Plant response rating, Oilseed Rape; for plant injury at 16 g/ha: 16 g ai/ha; for plant injury at 31 g/ha: 31 g ai/ha; for plant injury at 62 g/ha: 62 g ai/ha; for plant injury at 125 g/ha: 125 g ai/ha
Summary of the method: as §1

[6] = tested on: canarygrass (Phalaris minor); settings: scale 0 to 100, read-out: Plant response rating, Canarygrass; for pest or weed control at 16 g/ha: 16 g ai/ha; for pest or weed control at 31 g/ha: 31 g ai/ha; for pest or weed control at 62 g/ha: 62 g ai/ha; for pest or weed control at 125 g/ha: 125 g ai/ha
Summary of the method: as §1

[7] = tested on: deadnettle (henbit deadnettle, Lamium amplexicaule); settings: scale 0 to 100, read-out: Plant response rating, Deadnettle; for pest or weed control at 16 g/ha: 16 g ai/ha; for pest or weed control at 31 g/ha: 31 g ai/ha; for pest or weed control at 62 g/ha: 62 g ai/ha; for pest or weed control at 125 g/ha: 125 g ai/ha
Summary of the method: as §1

[8] = tested on: field poppy (Papaver rhoeas); settings: scale 0 to 100, read-out: Plant response rating, Field Poppy; for pest or weed control at 16 g/ha: 16 g ai/ha; for pest or weed control at 31 g/ha: 31 g ai/ha; for pest or weed control at 62 g/ha: 62 g ai/ha; for pest or weed control at 125 g/ha: 125 g ai/ha
Summary of the method: as §1

wild oat (Avena fatua) = settings: scale 0 to 100, read-out: Plant response rating, Oat, Wild; for pest or weed control at 16 g/ha: 16 g ai/ha; for pest or weed control at 31 g/ha: 31 g ai/ha; for pest or weed control at 62 g/ha: 62 g ai/ha; for pest or weed control at 125 g/ha: 125 g ai/ha
Summary of the method: as §1

[9] = tested on: downy bromegrass (Bromus tectorum); settings: scale 0 to 100, read-out: Plant response rating, Bromegrass, Downy; for pest or weed control at 16 g/ha: 16 g ai/ha; for pest or weed control at 31 g/ha: 31 g ai/ha; for pest or weed control at 62 g/ha: 62 g ai/ha; for pest or weed control at 125 g/ha: 125 g ai/ha
Summary of the method: as §1

[10] = tested on: winter barley (Hordeum vulgare); settings: scale 0 to 100, read-out: Plant response rating, Barley, Winter; for plant injury at 16 g/ha: 16 g ai/ha; for plant injury at 31 g/ha: 31 g ai/ha; for plant injury at 62 g/ha: 62 g ai/ha; for plant injury at 125 g/ha: 125 g ai/ha
Summary of the method: as §1

[11] = post-emergence, 31 g ai/ha, Postemergence

**Q.** Which results are given for FC(F)c1cc(-c2ccccc2Oc2ncc(Br)cn2)no1 [Compound 62, 5-bromo-2-[2-[5-(difluoromethyl)-3-isoxazolyl]phenoxy]pyrimidine]?
**A.** pest or weed control at 16 g/ha ([1]; post-emergence, Postemergence): 75%; pest or weed control at 31 g/ha ([1]; post-emergence, Postemergence): 80%; pest or weed control at 62 g/ha ([1]; post-emergence, Postemergence): 95%; pest or weed control at 125 g/ha ([1]; post-emergence, Postemergence): 100%; pest or weed control at 16 g/ha ([1]; pre-emergence, Preemergence): 25%; pest or weed control at 31 g/ha ([1]; pre-emergence, Preemergence): 35%; pest or weed control at 62 g/ha ([1]; pre-emergence, Preemergence): 80%; pest or weed control at 125 g/ha ([1]; pre-emergence, Preemergence): 100%; pest or weed control at 16 g/ha ([2]; post-emergence, Postemergence): 0%; pest or weed control at 31 g/ha ([2]; post-emergence, Postemergence): 5%; pest or weed control at 62 g/ha ([2]; post-emergence, Postemergence): 5%; pest or weed control at 125 g/ha ([2]; post-emergence, Postemergence): 10%; pest or weed control at 16 g/ha ([2]; pre-emergence, Preemergence): 0%; pest or weed control at 31 g/ha ([2]; pre-emergence, Preemergence): 65%; pest or weed control at 62 g/ha ([2]; pre-emergence, Preemergence): 60%; pest or weed control at 125 g/ha ([2]; pre-emergence, Preemergence): 65%; pest or weed control at 16 g/ha ([3]; post-emergence, Postemergence): 10%; pest or weed control at 31 g/ha [3, 11]: 20%; pest or weed control at 62 g/ha ([3]; post-emergence, Postemergence): 30%; pest or weed control at 125 g/ha ([3]; post-emergence, Postemergence): 65%; pest or weed control at 16 g/ha ([3]; pre-emergence, Preemergence): 0%; pest or weed control at 62 g/ha ([3]; pre-emergence, Preemergence): 50%; pest or weed control at 125 g/ha ([3]; pre-emergence, Preemergence): 50%; plant injury at 16 g/ha ([4]; post-emergence, Postemergence): 5%; plant injury at 31 g/ha [4, 11]: 20%; plant injury at 62 g/ha ([4]; post-emergence, Postemergence): 25%; plant injury at 125 g/ha ([4]; post-emergence, Postemergence): 40%; plant injury at 16 g/ha ([4]; pre-emergence, Preemergence): 0%; plant injury at 62 g/ha ([4]; pre-emergence, Preemergence): 0%; plant injury at 125 g/ha ([4]; pre-emergence, Preemergence): 10%; plant injury at 16 g/ha ([5]; post-emergence, Postemergence): 65%; plant injury at 31 g/ha ([5]; post-emergence, Postemergence): 80%; plant injury at 62 g/ha ([5]; post-emergence, Postemergence): 80%; plant injury at 125 g/ha ([5]; post-emergence, Postemergence): 100%; plant injury at 16 g/ha ([5]; pre-emergence, Preemergence): 10%; plant injury at 31 g/ha ([5]; pre-emergence, Preemergence): 25%; plant injury at 62 g/ha ([5]; pre-emergence, Preemergence): 65%; plant injury at 125 g/ha ([5]; pre-emergence, Preemergence): 100%; pest or weed control at 16 g/ha ([6]; post-emergence, Postemergence): 25%; pest or weed control at 31 g/ha ([6]; post-emergence, Postemergence): 35%; pest or weed control at 62 g/ha ([6]; post-emergence, Postemergence): 45%; pest or weed control at 125 g/ha ([6]; post-emergence, Postemergence): 55%; pest or weed control at 16 g/ha ([6]; pre-emergence, Preemergence): 0%; pest or weed control at 31 g/ha ([6]; pre-emergence, Preemergence): 0%; pest or weed control at 62 g/ha ([6]; pre-emergence, Preemergence): 50%; pest or weed control at 125 g/ha ([6]; pre-emergence, Preemergence): 90%; pest or weed control at 16 g/ha ([7]; post-emergence, Postemergence): 35%; pest or weed control at 31 g/ha ([7]; post-emergence, Postemergence): 35%; pest or weed control at 62 g/ha ([7]; post-emergence, Postemergence): 65%; pest or weed control at 125 g/ha ([7]; post-emergence, Postemergence): 70%; pest or weed control at 16 g/ha ([7]; pre-emergence, Preemergence): 15%; pest or weed control at 31 g/ha ([7]; pre-emergence, Preemergence): 20%; pest or weed control at 62 g/ha ([7]; pre-emergence, Preemergence): 40%; pest or weed control at 125 g/ha ([7]; pre-emergence, Preemergence): 100%; pest or weed control at 16 g/ha ([8]; post-emergence, Postemergence): 40%; pest or weed control at 31 g/ha ([8]; post-emergence, Postemergence): 55%; pest or weed control at 62 g/ha ([8]; post-emergence, Postemergence): 70%; pest or weed control at 125 g/ha ([8]; post-emergence, Postemergence): 75%; pest or weed control at 16 g/ha ([8]; pre-emergence, Preemergence): 65%; pest or weed control at 31 g/ha ([8]; pre-emergence, Preemergence): 75%; pest or weed control at 62 g/ha ([8]; pre-emergence, Preemergence): 100%; pest or weed control at 125 g/ha ([8]; pre-emergence, Preemergence): 100%; pest or weed control at 16 g/ha (wild oat (Avena fatua); post-emergence, Postemergence): 15%; pest or weed control at 31 g/ha (wild oat (Avena fatua); post-emergence, Postemergence): 25%; pest or weed control at 62 g/ha (wild oat (Avena fatua); post-emergence, Postemergence): 35%; pest or weed control at 125 g/ha (wild oat (Avena fatua); post-emergence, Postemergence): 60%; pest or weed control at 16 g/ha (wild oat (Avena fatua); pre-emergence, Preemergence): 0%; pest or weed control at 31 g/ha (wild oat (Avena fatua); pre-emergence, Preemergence): 10%; pest or weed control at 62 g/ha (wild oat (Avena fatua); pre-emergence, Preemergence): 15%; pest or weed control at 125 g/ha (wild oat (Avena fatua); pre-emergence, Preemergence): 20%; pest or weed control at 16 g/ha ([9]; post-emergence, Postemergence): 10%; pest or weed control at 31 g/ha ([9]; post-emergence, Postemergence): 15%; pest or weed control at 62 g/ha ([9]; post-emergence, Postemergence): 20%; pest or weed control at 125 g/ha ([9]; post-emergence, Postemergence): 40%; pest or weed control at 16 g/ha ([9]; pre-emergence, Preemergence): 0%; pest or weed control at 31 g/ha ([9]; pre-emergence, Preemergence): 0%; pest or weed control at 62 g/ha ([9]; pre-emergence, Preemergence): 10%; pest or weed control at 125 g/ha ([9]; pre-emergence, Preemergence): 20%; plant injury at 16 g/ha ([10]; post-emergence, Postemergence): 5%; plant injury at 31 g/ha ([10]; post-emergence, Postemergence): 10%; plant injury at 62 g/ha ([10]; post-emergence, Postemergence): 20%; plant injury at 125 g/ha ([10]; post-emergence, Postemergence): 35%; plant injury at 16 g/ha ([10]; pre-emergence, Preemergence): 0%; plant injury at 31 g/ha ([10]; pre-emergence, Preemergence): 0%; plant injury at 62 g/ha ([10]; pre-emergence, Preemergence): 5%; plant injury at 125 g/ha ([10]; pre-emergence, Preemergence): 5%
